This note sets out measurements from ChEMBL document CHEMBL1137234, “Correlation between brain/plasma ratios and efficacy in neuropathic pain models of selective metabotropic glutamate receptor 1 antagonists” (Bioorg Med Chem Lett, 2006).

Data set [1] has as its system Rattus norvegicus. Briefly: Efficacy in ip dosed rat osteoarthritic pain model after 30 mins. The format is functional. The settings on record: 0.5 h.
Data set [2] deals with Rattus norvegicus. Nature of the data set: Efficacy in ip dosed rat Chung spinal nerve L5/L6 ligation pain model after 30 mins. The settings on record: 0.5 h. It counts as functional.
Data set [3] has as its system Rattus norvegicus. Nature of the data set: Activity in ip dosed rat locomotor model. The format is functional.
In data set [4] the test system is Rattus norvegicus. Nature of the data set: Activity in ip dosed rat Rotarod model. It counts as functional. For orientation: Falling from the rotarod earlier than controls is read as motor impairment.
For data set [5], the target named is Metabotropic glutamate receptor 1 (Rattus norvegicus, UniProt P23385). Nature of the data set: Antagonist activity at rat mGluR1 expressed in 1321N1 cells. The format is functional, cell-based.
In data set [6] the target is Metabotropic glutamate receptor 5 (Rattus norvegicus, UniProt P31424). Nature of the data set: Antagonist activity at rat mGluR5 expressed in 1321N1 cells. It counts as functional, cell-based.
Data set [7] concerns Rattus norvegicus. Nature of the data set: Efficacy in rat Chung spinal nerve L5/L6 ligation pain model after 30 mins at 100 umol/kg, ip. It counts as functional.
Data set [8] relates to Rattus norvegicus. Nature of the data set: Drug level in rat brain at 30 umol/kg, ip. It counts as ADME, organism-based. To be noted: in vivo.
For data set [9], the species on record is Rattus norvegicus. Nature of the data set: Free drug level in rat brain. To be noted: in vivo. It counts as ADME, organism-based.
For data set [10], the species on record is Rattus norvegicus. Briefly: Protein binding in rat brain. It counts as ADME, organism-based. The settings on record: in vivo.
The target of data set [11] is Metabotropic glutamate receptor 2 (Homo sapiens, UniProt Q14416). Nature of the data set: Antagonist activity at human mGluR2 expressed in 1321N1 cells. The format is functional, cell-based.
Data set [12] concerns the target Metabotropic glutamate receptor 4 (Homo sapiens, UniProt Q14833). Nature of the data set: Antagonist activity at human mGluR4 expressed in 1321N1 cells. It counts as functional, cell-based.
Data set [13] concerns the target Metabotropic glutamate receptor 7 (Homo sapiens, UniProt Q14831). Nature of the data set: Antagonist activity at human mGluR7 expressed in 1321N1 cells. It counts as functional, cell-based.
The subject of data set [14] is Rattus norvegicus. Nature of the data set: Efficacy in ip dosed rat CFA model after 30 mins. It counts as functional. To be noted: 0.5 h.
Data set [15] deals with Rattus norvegicus. Nature of the data set: Efficacy in ip dosed rat Carrageenan model after 30 mins. It counts as functional. The settings on record: 0.5 h.
Data set [16] relates to Rattus norvegicus. Briefly: Efficacy in ip dosed rat skin incision model after 30 mins. It counts as functional. To be noted: 0.5 h.
Data set [17] relates to Rattus norvegicus. Briefly: Efficacy in ip dosed rat formalin model after 30 mins. It counts as functional. The settings on record: 0.5 h.

Chain of Metabotropic glutamate receptor 5 (P31424 whole entry): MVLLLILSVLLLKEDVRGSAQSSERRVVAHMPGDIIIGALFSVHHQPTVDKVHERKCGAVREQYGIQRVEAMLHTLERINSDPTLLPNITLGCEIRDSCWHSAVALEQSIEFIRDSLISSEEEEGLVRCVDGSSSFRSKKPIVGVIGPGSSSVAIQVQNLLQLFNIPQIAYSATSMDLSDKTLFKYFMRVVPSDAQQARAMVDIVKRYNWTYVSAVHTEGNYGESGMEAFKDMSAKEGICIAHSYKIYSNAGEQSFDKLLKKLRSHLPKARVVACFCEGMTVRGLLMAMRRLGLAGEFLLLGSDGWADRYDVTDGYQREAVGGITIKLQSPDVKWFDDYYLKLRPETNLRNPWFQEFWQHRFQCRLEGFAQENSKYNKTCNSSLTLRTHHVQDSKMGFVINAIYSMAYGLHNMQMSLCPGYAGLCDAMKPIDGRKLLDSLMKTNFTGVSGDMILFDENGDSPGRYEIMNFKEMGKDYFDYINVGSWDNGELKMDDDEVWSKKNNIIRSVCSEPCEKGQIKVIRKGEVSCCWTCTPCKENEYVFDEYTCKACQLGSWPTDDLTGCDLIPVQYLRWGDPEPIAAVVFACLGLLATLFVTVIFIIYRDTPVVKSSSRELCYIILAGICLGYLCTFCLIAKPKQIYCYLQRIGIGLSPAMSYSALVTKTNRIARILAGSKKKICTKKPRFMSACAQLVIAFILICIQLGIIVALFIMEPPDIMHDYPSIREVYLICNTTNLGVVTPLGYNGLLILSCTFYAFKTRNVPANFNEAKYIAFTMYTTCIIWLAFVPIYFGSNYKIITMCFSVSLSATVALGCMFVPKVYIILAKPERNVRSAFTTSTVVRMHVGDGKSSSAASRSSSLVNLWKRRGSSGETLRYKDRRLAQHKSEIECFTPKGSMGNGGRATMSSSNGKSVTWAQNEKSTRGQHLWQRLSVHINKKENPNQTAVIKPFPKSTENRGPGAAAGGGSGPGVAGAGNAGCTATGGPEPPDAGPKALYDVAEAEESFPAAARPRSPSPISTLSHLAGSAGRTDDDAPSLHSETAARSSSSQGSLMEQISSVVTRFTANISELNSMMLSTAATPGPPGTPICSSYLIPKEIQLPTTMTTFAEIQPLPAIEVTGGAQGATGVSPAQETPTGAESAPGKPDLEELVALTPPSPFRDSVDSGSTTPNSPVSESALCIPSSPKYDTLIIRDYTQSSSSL
Chain of Metabotropic glutamate receptor 1 (P23385 whole entry): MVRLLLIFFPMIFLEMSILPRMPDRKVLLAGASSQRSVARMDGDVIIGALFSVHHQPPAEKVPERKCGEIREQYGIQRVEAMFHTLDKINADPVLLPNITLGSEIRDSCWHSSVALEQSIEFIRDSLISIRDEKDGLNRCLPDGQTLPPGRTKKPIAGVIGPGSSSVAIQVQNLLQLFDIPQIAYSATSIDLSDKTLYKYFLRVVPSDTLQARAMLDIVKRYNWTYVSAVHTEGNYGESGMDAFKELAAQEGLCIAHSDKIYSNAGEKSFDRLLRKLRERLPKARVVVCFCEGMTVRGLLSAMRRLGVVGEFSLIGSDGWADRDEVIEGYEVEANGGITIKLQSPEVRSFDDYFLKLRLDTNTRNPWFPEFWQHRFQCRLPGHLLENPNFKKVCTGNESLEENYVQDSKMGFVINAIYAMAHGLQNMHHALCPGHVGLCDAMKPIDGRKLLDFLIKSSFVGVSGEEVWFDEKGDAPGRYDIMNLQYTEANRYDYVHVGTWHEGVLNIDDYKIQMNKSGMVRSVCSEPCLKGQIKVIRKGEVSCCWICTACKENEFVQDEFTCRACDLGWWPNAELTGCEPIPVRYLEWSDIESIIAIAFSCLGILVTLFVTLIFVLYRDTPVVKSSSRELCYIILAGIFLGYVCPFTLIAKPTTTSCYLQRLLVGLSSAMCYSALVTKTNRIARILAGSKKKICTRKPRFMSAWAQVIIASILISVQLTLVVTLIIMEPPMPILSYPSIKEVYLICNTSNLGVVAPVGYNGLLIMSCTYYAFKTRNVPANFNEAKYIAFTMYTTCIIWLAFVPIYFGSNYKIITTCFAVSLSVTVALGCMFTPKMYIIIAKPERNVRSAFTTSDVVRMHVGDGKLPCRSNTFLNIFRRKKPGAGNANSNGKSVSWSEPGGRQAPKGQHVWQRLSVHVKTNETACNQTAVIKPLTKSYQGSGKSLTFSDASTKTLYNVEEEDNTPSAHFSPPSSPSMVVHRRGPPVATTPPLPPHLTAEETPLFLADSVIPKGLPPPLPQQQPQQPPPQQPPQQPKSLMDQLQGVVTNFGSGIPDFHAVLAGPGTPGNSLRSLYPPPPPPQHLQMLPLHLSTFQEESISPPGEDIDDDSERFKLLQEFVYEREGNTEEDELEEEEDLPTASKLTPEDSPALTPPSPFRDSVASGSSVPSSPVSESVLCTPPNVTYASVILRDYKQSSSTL
Chain of Metabotropic glutamate receptor 7 (Q14831 whole entry): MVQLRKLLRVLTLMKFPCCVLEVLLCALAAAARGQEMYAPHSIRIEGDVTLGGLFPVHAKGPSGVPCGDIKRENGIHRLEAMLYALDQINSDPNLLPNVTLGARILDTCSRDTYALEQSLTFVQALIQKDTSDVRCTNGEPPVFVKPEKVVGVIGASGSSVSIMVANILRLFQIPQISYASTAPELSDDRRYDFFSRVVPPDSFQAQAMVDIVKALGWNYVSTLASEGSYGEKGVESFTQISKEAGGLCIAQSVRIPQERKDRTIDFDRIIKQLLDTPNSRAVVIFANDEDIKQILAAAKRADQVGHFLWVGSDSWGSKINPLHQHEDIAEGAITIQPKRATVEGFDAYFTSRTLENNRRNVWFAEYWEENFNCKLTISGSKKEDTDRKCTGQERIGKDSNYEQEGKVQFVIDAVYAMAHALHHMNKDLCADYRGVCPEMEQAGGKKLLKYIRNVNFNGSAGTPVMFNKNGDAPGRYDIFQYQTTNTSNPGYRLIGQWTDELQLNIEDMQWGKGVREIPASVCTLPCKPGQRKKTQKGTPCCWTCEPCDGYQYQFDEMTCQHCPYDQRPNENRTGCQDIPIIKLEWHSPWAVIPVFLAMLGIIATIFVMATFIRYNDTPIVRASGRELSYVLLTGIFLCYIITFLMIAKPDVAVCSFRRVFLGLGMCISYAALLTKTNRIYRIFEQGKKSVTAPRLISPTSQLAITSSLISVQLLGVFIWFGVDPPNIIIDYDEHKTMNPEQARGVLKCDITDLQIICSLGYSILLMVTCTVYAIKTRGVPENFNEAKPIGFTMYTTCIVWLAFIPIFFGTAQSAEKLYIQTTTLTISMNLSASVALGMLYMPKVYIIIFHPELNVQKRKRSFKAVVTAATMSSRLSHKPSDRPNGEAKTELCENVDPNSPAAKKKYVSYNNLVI
Chain of Metabotropic glutamate receptor 4 (Q14833 whole entry): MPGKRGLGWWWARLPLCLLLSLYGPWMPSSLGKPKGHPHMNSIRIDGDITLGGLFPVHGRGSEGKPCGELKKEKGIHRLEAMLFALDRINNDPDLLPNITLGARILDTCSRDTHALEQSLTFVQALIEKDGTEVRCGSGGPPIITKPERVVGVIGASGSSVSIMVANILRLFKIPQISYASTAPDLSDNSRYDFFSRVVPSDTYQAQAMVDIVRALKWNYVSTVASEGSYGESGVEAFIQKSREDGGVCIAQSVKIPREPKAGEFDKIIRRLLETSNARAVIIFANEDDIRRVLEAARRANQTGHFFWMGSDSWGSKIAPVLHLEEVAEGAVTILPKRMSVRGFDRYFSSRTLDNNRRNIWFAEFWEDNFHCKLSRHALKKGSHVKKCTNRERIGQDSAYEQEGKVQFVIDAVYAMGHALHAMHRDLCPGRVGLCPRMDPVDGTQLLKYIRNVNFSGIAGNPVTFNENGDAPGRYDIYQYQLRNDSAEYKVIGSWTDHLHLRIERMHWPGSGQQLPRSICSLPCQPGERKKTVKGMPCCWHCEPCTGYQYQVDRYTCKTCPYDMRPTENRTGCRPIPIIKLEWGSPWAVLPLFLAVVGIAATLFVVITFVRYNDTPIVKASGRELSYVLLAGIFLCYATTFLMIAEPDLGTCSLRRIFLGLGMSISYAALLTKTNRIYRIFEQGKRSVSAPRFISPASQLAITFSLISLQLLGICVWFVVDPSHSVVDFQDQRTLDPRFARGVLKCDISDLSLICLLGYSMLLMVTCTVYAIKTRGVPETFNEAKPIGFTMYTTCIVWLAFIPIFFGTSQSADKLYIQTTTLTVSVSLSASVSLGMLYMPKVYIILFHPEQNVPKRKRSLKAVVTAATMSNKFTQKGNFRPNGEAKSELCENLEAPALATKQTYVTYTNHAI
Chain of Metabotropic glutamate receptor 2 (Q14416 whole entry): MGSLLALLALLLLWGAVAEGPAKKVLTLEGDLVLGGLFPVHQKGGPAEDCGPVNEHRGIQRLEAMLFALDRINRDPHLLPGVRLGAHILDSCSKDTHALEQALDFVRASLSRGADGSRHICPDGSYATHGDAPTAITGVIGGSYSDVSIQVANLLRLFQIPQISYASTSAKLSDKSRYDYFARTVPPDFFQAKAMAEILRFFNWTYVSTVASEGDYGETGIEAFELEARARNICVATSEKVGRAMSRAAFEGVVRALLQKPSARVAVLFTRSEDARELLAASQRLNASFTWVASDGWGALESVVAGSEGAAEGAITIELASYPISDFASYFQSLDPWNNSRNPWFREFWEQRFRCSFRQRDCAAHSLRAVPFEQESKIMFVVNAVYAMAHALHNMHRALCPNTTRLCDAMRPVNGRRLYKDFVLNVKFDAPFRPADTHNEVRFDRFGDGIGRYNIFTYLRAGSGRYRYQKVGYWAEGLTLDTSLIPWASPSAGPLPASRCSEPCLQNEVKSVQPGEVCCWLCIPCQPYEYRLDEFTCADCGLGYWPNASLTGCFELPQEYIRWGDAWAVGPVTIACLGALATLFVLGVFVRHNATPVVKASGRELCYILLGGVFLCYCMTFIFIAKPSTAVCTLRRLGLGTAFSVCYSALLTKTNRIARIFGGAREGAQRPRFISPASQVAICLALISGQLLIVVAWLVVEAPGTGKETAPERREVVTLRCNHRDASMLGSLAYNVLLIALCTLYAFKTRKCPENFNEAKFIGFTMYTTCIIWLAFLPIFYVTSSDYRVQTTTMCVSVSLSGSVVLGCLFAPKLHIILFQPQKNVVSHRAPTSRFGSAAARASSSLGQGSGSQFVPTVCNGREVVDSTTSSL

One may read the ED50 as the dose that gives a 50% effect, or the effect in half of the subjects. Lower therefore signals greater potency. As usually defined, the IC50 is the midpoint of a concentration-inhibition curve. Low values mean greater potency in that assay, high ones weaker potency in that assay. On to `CCc1ccc(-n2cnc3c(sc4nccc(N(C)C)c43)c2=O)cc1`, for which the ED50 in the data set with Rattus norvegicus [1] is 29 µmol/kg; with Rattus norvegicus [2], more than 100 µmol/kg; in the data set on Rattus norvegicus [3] it was more than 100 µmol/kg; with Rattus norvegicus [4] it was more than 300 µmol/kg; in the data set on Rattus norvegicus [14], 15 µmol/kg; in the data set on Rattus norvegicus [15], 11 µmol/kg. The median effective dose (ED50) stood at 47 µmol/kg with Rattus norvegicus [16] and 19 µmol/kg with Rattus norvegicus [17]. The half-maximal inhibitory concentration (IC50) in [5] is 0.005 µM; in [6], 1.33 µM; in data set [11] it was more than 10 µM; in data set [12], more than 10 µM; in data set [13], more than 10 µM. Further, the Efficacy in the data set with Rattus norvegicus [7] is given as 41%. In addition, the Activity with Rattus norvegicus [8] is 1180 ng/g; in the data set listed under Rattus norvegicus [9], 25.5 ng/g; in the data set listed under Rattus norvegicus [10], 97.8%.
Turning to `CN(C)c1ccnc2sc3c(=O)n(N4CCCCCC4)cnc3c12`, in the data set on Rattus norvegicus [2], it took a dose of 22 µmol/kg to reach the 50% effect level (ED50). Besides, the IC50 was 0.001 µM in data set [5] and more than 10 µM in data set [6]. The same compound came in with an Efficacy with Rattus norvegicus [7] of 100%. Further, the Activity in the data set with Rattus norvegicus [8] was 851 ng/g.
In the data set on Rattus norvegicus [2], `Cc1ccc(-n2cnc3c(sc4cncc(N(C)C)c43)c2=O)cc1F` returned an ED50 of 55 µmol/kg. For the same compound, the IC50 was 0.021 µM in [5] and more than 10 µM in data set [6]. Moreover, in the data set with Rattus norvegicus [7], the Efficacy is recorded as 72%. For the same compound, the Activity with Rattus norvegicus [8] amounted to 125 ng/g; in the data set filed under Rattus norvegicus [9] it was 0.13 ng/g; in the data set listed under Rattus norvegicus [10], 99.9%.
With `C[N+](C)([O-])c1ccnc2sc3c(=O)n(N4CCCCCC4)cnc3c12`, the IC50 was 0.033 µM in data set [5] and more than 10 µM in [6]. Moreover, the Efficacy in the data set with Rattus norvegicus [7] came out at 12%.
In the case of `CCc1ccc(-n2cnc3c(sc4nccc(N(C)CCc5ccccn5)c43)c2=O)cc1`, the concentration for half-maximal inhibition (IC50) in data set [5] was 0.052 µM; in data set [6], more than 10 µM. The Efficacy in the data set on Rattus norvegicus [7] is recorded as 11%.
